Measurements published in publication PMC9069370, “Integrated Design of a Membrane‐Lytic Peptide‐Based Intravenous Nanotherapeutic Suppresses Triple‐Negative Breast Cancer” (Advanced Science, 2022).
Peptide text beside a SMILES is read from it.

Tests used:
[1] = Tryptophan fluorescent binding assay; conditions: tryptophan fluorescence; 50 µM peptide, lipid titrated 0-5000 µM; phosphate buffered saline 1X, pH 7.4; values as lipid per peptide
Procedure, shortened: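 Tryptophan fluorescence was used to follow binding of peptide, fixed at 50 µM, to large unilamellar vesicles of POPC:POPG (3:1 ratio) titrated into phosphate buffered saline (1X, pH 7.4). After 1 h incubation, spectra were taken on a BioTek Cytation 5 reader with excitation at 280 nm and emission at 300 to 450 nm (9 nm slits), averaging three scans.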

[2] = tested on: U2OS; assay type: cell-based, human; conditions: 72 h
[3] = tested on: HEK293T; assay: cells; assay type: cell-based, human; conditions: 72 h
[4] = tested on: HMLER; assay: cells; assay type: cell-based, human; conditions: 72 h
From the text: (§1) […], and MCF-10A cells were maintained in MEGM with supplements and growth factors bovine pituitary extract, hydrocortisone, human epidermal growth factor, insulin, and gentamicin/amphotericin-B.

[5] = tested on: MCF‐10A; assay: cells; assay type: cell-based, human; conditions: 72 h
From the text: as §1

[6] = tested on: HMLER‐shEcad; assay: cells; assay type: cell-based, human; conditions: 72 h
From the text: as §1

[7] = ANTS/DPX liposome leakage assay; conditions: 0.5 mM vesicles, peptide 0-20 µM, 3 h incubation, lipid per peptide; for Peptide Concentration-induced 50 % ANTS/DPX leakage at pH 4.8 (L/P), 3POPC/1POPG Vesicle / Peptide Concentration-induced 50 % ANTS/DPX leakage at pH 4.8 (L/P), POPC Vesicle: HCl-adjusted PBS 1X pH 4.8; for Peptide Concentration-induced 50 % ANTS/DPX leakage at pH 7.4 (L/P), 3POPC/1POPG Vesicle / Peptide Concentration-induced 50 % ANTS/DPX leakage at pH 7.4 (L/P), POPC Vesicle: PBS 1X pH 7.4, high ratio = more potent
Procedure, shortened: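 Extruded 0.1 µm POPC or POPC/POPG (3:1) vesicles were loaded with 5 mM ANTS and 12.5 mM DPX, gel-filtered, then used at 0.5 mM lipid with titrated peptide at pH 7.4 or pH 4.8 (acidified PBS). Leakage was read at ex 350/em 510 nm after 3 h against 10% Triton maximum, expressed as lipid/peptide ratio for 50% leakage.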

Compound | Lipid Concentration-induced 50% Peptide Binding (L/P), 3POPC/1POPG Vesicle [1] | Lipid Concentration-induced 50% Peptide Binding (L/P), POPC Vesicle [1] | IC50 [2] | IC50 [4] | IC50 [5] | IC50 [6] | IC50 [3] | Peptide Concentration-induced 50 % ANTS/DPX leakage at pH 4.8 (L/P), 3POPC/1POPG Vesicle [7] | Peptide Concentration-induced 50 % ANTS/DPX leakage at pH 4.8 (L/P), POPC Vesicle [7] | Peptide Concentration-induced 50 % ANTS/DPX leakage at pH 7.4 (L/P), 3POPC/1POPG Vesicle [7] | Peptide Concentration-induced 50 % ANTS/DPX leakage at pH 7.4 (L/P), POPC Vesicle [7]
CC(C)C[C@H](NC(=O)CN)C(=O)N[C@@H](CC(C)C)C(=O)N[C@@H](Cc1c[nH]cn1)C(=O)N[C@@H](CC(C)C)C(=O)N[C@@H](CC(C)C)C(=O)N[C@@H](CCCCN)C(=O)N[C@@H](CC(C)C)C(=O)N[C@@H](CC(C)C)C(=O)N[C@@H](CC(C)C)C(=O)N[C@@H](Cc1c[nH]cn1)C(=O)N[C@@H](C)C(=O)N[C@@H](C)C(=O)NCC(=O)N[C@@H](Cc1c[nH]c2ccccc12)C(N)=O [HKH] (H-GLLHLLKLLLHAAGW-NH2) | 0.38 L/P | 0.18 L/P | 18.9 ± 1.24 µM | 3.45 ± 0.21 µM | 6.1 µM | 3.1 ± 0.57 µM | 5.7 ± 0.99 µM | 47 L/P | 193 L/P | 274 L/P | 1077 L/P
CC(C)C[C@H](NC(=O)CN)C(=O)N[C@@H](CC(C)C)C(=O)N[C@@H](Cc1c[nH]cn1)C(=O)N[C@@H](CC(C)C)C(=O)N[C@@H](CC(C)C)C(=O)N[C@@H](CCCCN)C(=O)N[C@@H](CC(C)C)C(=O)N[C@@H](CC(C)C)C(=O)N[C@@H](CC(C)C)C(=O)N[C@@H](CCCCN)C(=O)N[C@@H](C)C(=O)N[C@@H](C)C(=O)NCC(=O)N[C@@H](Cc1c[nH]c2ccccc12)C(N)=O [HKK] (H-GLLHLLKLLLKAAGW-NH2) | 0.14 L/P | 0.18 L/P | 12.23 ± 0.11 µM | 3.4 ± 0.71 µM | 2.18 ± 0.39 µM | 2.6 ± 0.42 µM | 9.5 ± 0.99 µM | 106 L/P | 106 L/P | 90 L/P | 657 L/P
CC(C)C[C@H](NC(=O)CN)C(=O)N[C@@H](CC(C)C)C(=O)N[C@@H](CCCCN)C(=O)N[C@@H](CC(C)C)C(=O)N[C@@H](CC(C)C)C(=O)N[C@@H](CCC(=O)O)C(=O)N[C@@H](CC(C)C)C(=O)N[C@@H](CC(C)C)C(=O)N[C@@H](CC(C)C)C(=O)N[C@@H](Cc1c[nH]cn1)C(=O)N[C@@H](C)C(=O)N[C@@H](C)C(=O)NCC(=O)N[C@@H](Cc1c[nH]c2ccccc12)C(N)=O [KEH] (H-GLLKLLELLLHAAGW-NH2) | 0.50 L/P | 1.00 L/P | 49.2 ± 5.3 µM | 3.3 ± 0.42 µM | 20 µM | 2.35 ± 0.07 µM | 5.65 ± 0.07 µM | 68 L/P | 188 L/P | 286 L/P | 995 L/P
CC(C)C[C@H](NC(=O)CN)C(=O)N[C@@H](CC(C)C)C(=O)N[C@@H](CCCCN)C(=O)N[C@@H](CC(C)C)C(=O)N[C@@H](CC(C)C)C(=O)N[C@@H](CCC(=O)O)C(=O)N[C@@H](CC(C)C)C(=O)N[C@@H](CC(C)C)C(=O)N[C@@H](CC(C)C)C(=O)N[C@@H](CCCCN)C(=O)N[C@@H](C)C(=O)N[C@@H](C)C(=O)NCC(=O)N[C@@H](Cc1c[nH]c2ccccc12)C(N)=O [KEK] (H-GLLKLLELLLKAAGW-NH2) | 0.50 L/P | 0.47 L/P | 8.15 ± 0.49 µM | 1.6 ± 0.14 µM | 1.55 ± 0.07 µM | 1.35 ± 0.07 µM | 3.2 ± 0.14 µM | 126 L/P | 110 L/P | 438 L/P | 1173 L/P
CC(C)C[C@H](NC(=O)CN)C(=O)N[C@@H](CC(C)C)C(=O)N[C@@H](CCCCN)C(=O)N[C@@H](CC(C)C)C(=O)N[C@@H](CC(C)C)C(=O)N[C@@H](Cc1c[nH]cn1)C(=O)N[C@@H](CC(C)C)C(=O)N[C@@H](CC(C)C)C(=O)N[C@@H](CC(C)C)C(=O)N[C@@H](CCC(=O)O)C(=O)N[C@@H](C)C(=O)N[C@@H](C)C(=O)NCC(=O)N[C@@H](Cc1c[nH]c2ccccc12)C(N)=O [KHE] (H-GLLKLLHLLLEAAGW-NH2) | 0.71 L/P | 0.88 L/P | 53 ± 2.83 µM | 3.7 ± 0.14 µM | 20.9 ± 5.87 µM | 2.92 ± 0.17 µM | 26 ± 2.83 µM | 156 L/P | 183 L/P | 188 L/P | 981 L/P
CC(C)C[C@H](NC(=O)CN)C(=O)N[C@@H](CC(C)C)C(=O)N[C@@H](CCCCN)C(=O)N[C@@H](CC(C)C)C(=O)N[C@@H](CC(C)C)C(=O)N[C@@H](Cc1c[nH]cn1)C(=O)N[C@@H](CC(C)C)C(=O)N[C@@H](CC(C)C)C(=O)N[C@@H](CC(C)C)C(=O)N[C@@H](Cc1c[nH]cn1)C(=O)N[C@@H](C)C(=O)N[C@@H](C)C(=O)NCC(=O)N[C@@H](Cc1c[nH]c2ccccc12)C(N)=O [KHH] (H-GLLKLLHLLLHAAGW-NH2) | 0.94 L/P | 3.50 L/P | 39.8 ± 5.3 µM | 5.2 ± 0.71 µM | 10.3 ± 0.49 µM | 4.45 ± 0.49 µM | 7.75 ± 0.78 µM | 48 L/P | 227 L/P | 329 L/P | 1153 L/P

Further lines, with some results ahead:

Lipid Concentration-induced 50% Peptide Binding (L/P), 3POPC/1POPG Vesicle [1] | Lipid Concentration-induced 50% Peptide Binding (L/P), POPC Vesicle [1] | IC50 [2] | IC50 [4] | IC50 [5] | IC50 [6] | Compound | IC50 [3] | Peptide Concentration-induced 50 % ANTS/DPX leakage at pH 4.8 (L/P), 3POPC/1POPG Vesicle [7] | Peptide Concentration-induced 50 % ANTS/DPX leakage at pH 4.8 (L/P), POPC Vesicle [7] | Peptide Concentration-induced 50 % ANTS/DPX leakage at pH 7.4 (L/P), 3POPC/1POPG Vesicle [7] | Peptide Concentration-induced 50 % ANTS/DPX leakage at pH 7.4 (L/P), POPC Vesicle [7]
0.38 L/P | 0.17 L/P | 12.9 ± 1.24 µM | 2.59 ± 0.92 µM | 1.81 ± 0.05 µM | 1.4 ± 0.14 µM | CC(C)C[C@H](NC(=O)CN)C(=O)N[C@@H](CC(C)C)C(=O)N[C@@H](CCCCN)C(=O)N[C@@H](CC(C)C)C(=O)N[C@@H](CC(C)C)C(=O)N[C@@H](Cc1c[nH]cn1)C(=O)N[C@@H](CC(C)C)C(=O)N[C@@H](CC(C)C)C(=O)N[C@@H](CC(C)C)C(=O)N[C@@H](CCCCN)C(=O)N[C@@H](C)C(=O)N[C@@H](C)C(=O)NCC(=O)N[C@@H](Cc1c[nH]c2ccccc12)C(N)=O [KHK] (H-GLLKLLHLLLKAAGW-NH2) | 3.55 ± 0.78 µM | 53 L/P | 140 L/P | 193 L/P | 1153 L/P
0.44 L/P | 0.48 L/P | 12.8 ± 1.2 µM | 2.05 ± 0.64 µM | 2.9 ± 0.57 µM | 1.7 µM | CC(C)C[C@H](NC(=O)CN)C(=O)N[C@@H](CC(C)C)C(=O)N[C@@H](CCCCN)C(=O)N[C@@H](CC(C)C)C(=O)N[C@@H](CC(C)C)C(=O)N[C@@H](CCCCN)C(=O)N[C@@H](CC(C)C)C(=O)N[C@@H](CC(C)C)C(=O)N[C@@H](CC(C)C)C(=O)N[C@@H](CCC(=O)O)C(=O)N[C@@H](C)C(=O)N[C@@H](C)C(=O)NCC(=O)N[C@@H](Cc1c[nH]c2ccccc12)C(N)=O [KKE] (H-GLLKLLKLLLEAAGW-NH2) | 4.4 ± 0.14 µM | 131 L/P | 143 L/P | 346 L/P | 1133 L/P
0.48 L/P | 0.83 L/P | 13.3 ± 0.99 µM | 2.4 ± 0.85 µM | 1.75 ± 0.35 µM | 2.2 ± 0.42 µM | CC(C)C[C@H](NC(=O)CN)C(=O)N[C@@H](CC(C)C)C(=O)N[C@@H](CCCCN)C(=O)N[C@@H](CC(C)C)C(=O)N[C@@H](CC(C)C)C(=O)N[C@@H](CCCCN)C(=O)N[C@@H](CC(C)C)C(=O)N[C@@H](CC(C)C)C(=O)N[C@@H](CC(C)C)C(=O)N[C@@H](Cc1c[nH]cn1)C(=O)N[C@@H](C)C(=O)N[C@@H](C)C(=O)NCC(=O)N[C@@H](Cc1c[nH]c2ccccc12)C(N)=O [KKH] (H-GLLKLLKLLLHAAGW-NH2) | 4 ± 0.28 µM | 49 L/P | 164 L/P | 227 L/P | 2119 L/P
